Results published in patent US7858621B2 (Amorepacific Corporation, priority 2006, dated 2010).

biological target: T1, vanilloid receptor (Rattus norvegicus, UniProt O35433); assay: 45Ca influx test in cultured neonatal rat DRG neurons, inhibition of capsaicin response; format: cell-based; conditions: neonatal rat DRG neurons, capsaicin 0.5 μM, 45Ca influx; read-out: Antagonist Calcium Uptake Test (IC50)
T1 construct: DRG nerve cells from the primary culture of 2 days were equilibrated; endogenous in cells; host or cells: primary culture of dorsal root ganglion neurons from neonatal SD rats
T1 sequence (O35433 whole entry): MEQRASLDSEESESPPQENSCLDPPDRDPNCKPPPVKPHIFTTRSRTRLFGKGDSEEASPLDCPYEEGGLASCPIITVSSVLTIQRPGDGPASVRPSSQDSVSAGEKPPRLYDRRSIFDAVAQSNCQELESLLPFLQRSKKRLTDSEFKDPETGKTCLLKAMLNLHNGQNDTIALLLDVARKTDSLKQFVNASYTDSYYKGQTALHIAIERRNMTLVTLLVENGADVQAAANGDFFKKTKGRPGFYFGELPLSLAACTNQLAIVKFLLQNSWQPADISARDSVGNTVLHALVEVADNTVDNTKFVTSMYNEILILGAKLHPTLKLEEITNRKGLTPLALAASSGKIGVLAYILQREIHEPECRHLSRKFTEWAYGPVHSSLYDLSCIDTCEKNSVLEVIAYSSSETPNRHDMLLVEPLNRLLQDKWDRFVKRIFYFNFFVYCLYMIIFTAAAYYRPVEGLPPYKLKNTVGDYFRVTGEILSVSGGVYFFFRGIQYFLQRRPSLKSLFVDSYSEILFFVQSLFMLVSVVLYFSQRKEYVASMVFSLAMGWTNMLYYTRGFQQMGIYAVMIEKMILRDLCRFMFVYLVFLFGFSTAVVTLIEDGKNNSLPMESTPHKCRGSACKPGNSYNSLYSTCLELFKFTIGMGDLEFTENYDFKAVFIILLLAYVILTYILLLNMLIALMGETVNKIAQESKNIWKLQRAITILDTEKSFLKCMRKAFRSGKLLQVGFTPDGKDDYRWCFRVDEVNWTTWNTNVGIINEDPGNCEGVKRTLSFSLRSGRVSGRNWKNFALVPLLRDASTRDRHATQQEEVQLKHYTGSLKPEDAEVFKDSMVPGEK
Summary of the method: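 Neonatal SD rat DRG neurons, cultured 2 days with NGF (200 ng/ml) and Ara-C, were washed in HEPES (10 mM, pH 7.4)-buffered Ca/Mg-free HBSS. Test compound was added with capsaicin (final 0.5 μM) and 45Ca (10 μCi/ml) for 10 min at room temperature; 45Ca uptake counted by scintillation after SDS elution.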

Row | SMILES | IC50 [µM]
1 | CCC(C)c1nc(C(F)(F)F)ccc1/C=C/C(=O)NCc1cc(F)c(NS(C)(=O)=O)c(F)c1 (stereo not drawn) [Example 235, N-(3,5-Difluoro-4-methanesulfonylamino-benzyl)-3-(2-sec-butyl-6-trifluoromethyl-pyridin-3-yl)-acrylamide] | 0.19
2 | C[C@@H](NC(=O)/C=C/c1ccc(C(F)(F)F)nc1CCc1ccccc1)c1cc(F)c(NS(C)(=O)=O)c(F)c1 [Example 236, (R)—N-[1-(3,5-Difluoro-4-methanesulfonylamino-phenyl)-ethyl]-3-(2-phenethyl-6-trifluoromethyl-pyridin-3-yl)-acrylamide] | 0.049
3 | C[C@@H](NC(=O)/C=C/c1ccc(C(F)(F)F)nc1CCc1ccccc1)c1ccc(NS(C)(=O)=O)c(F)c1 [Example 237, (R)—N-[1-(3-Fluoro-4-methanesulfonylamino-phenyl)-ethyl]-3-(2-phenethyl-6-trifluoromethyl-pyridin-3-yl)-acrylamide] | 0.096
4 | CCCCNc1nc(C(F)(F)F)ccc1/C=C/C(=O)N[C@H](C)c1cc(F)c(NS(C)(=O)=O)c(F)c1 [Example 238, (R)-3-(2-Butylamino-6-trifluoromethyl-pyridin-3-yl)-N-[(1R)-(3,5-difluoro-4-methanesulfonylamino-phenyl)-ethyl]-acrylamide] | 0.045
5 | C[C@@H](NC(=O)/C=C/c1ccc(C(F)(F)F)nc1N1CCCCC1)c1cc(F)c(NS(C)(=O)=O)c(F)c1 [Example 239, (R)—N-[1-(3,5-Difluoro-4-methanesulfonylamino-phenyl)-ethyl]-3-(2-piperid-1-yl-6-trifluoromethyl-pyridin-3-yl)-acrylamide] | 0.12
6 | CCCCNc1nc(C(F)(F)F)ccc1/C=C/C(=O)N[C@@H](C)c1cc(F)c(NS(C)(=O)=O)c(F)c1 [Example 240, (S)-3-(2-Butylamino-6-trifluoromethyl-pyridin-3-yl)-N-[(1S)-(3,5-difluoro-4-methanesulfonylamino-phenyl)-ethyl]-acrylamide] | 0.2
7 | CC[C@@H](C)c1nc(C(F)(F)F)ccc1/C=C/C(=O)NCc1ccc(NS(C)(=O)=O)c(C)c1 [Example 241, (R)-3-(2-sec-Butyl-6-trifluoromethyl-pyridin-3-yl)-N-1-(4-methanesulfonylamino-3-methyl-benzyl)-acrylamide] | 0.034
8 | CC(C)c1nc(C(F)(F)F)ccc1/C=C/C(=O)N[C@H](C)c1cc(F)c(NS(C)(=O)=O)c(F)c1 [Example 242, (R)—N-[1-(3,5-Difluoro-4-methanesulfonylamino-phenyl)-ethyl]-3-(2-isopropyl-6-trifluoromethyl-pyridin-3-yl)-acrylamide] | 0.025
9 | CCC(C)c1nc(C(F)(F)F)ccc1/C=C/C(=O)N[C@H](C)c1ccc(NS(C)(=O)=O)c(F)c1 (stereo partly drawn) [Example 243, (R)-3-(2-sec-Butyl-6-trifluoromethyl-pyridin-3-yl)-N-[1-(3-fluoro-4-methanesulfonylamino-phenyl)-ethyl]-acrylamide] | 0.041
10 | CCNc1nc(C(F)(F)F)ccc1/C=C/C(=O)N[C@H](C)c1cc(F)c(NS(C)(=O)=O)c(F)c1 [Example 244, (R)—N-[1-(3,5-Difluoro-4-methanesulfonylamino-phenyl)-ethyl]-3-(2-ethylamino-6-trifluoromethyl-pyridin-3-yl)-acrylamide] | 0.067
11 | CC(C)Cc1nc(C(F)(F)F)ccc1/C=C/C(=O)N[C@H](C)c1cc(F)c(NS(C)(=O)=O)c(F)c1 [Example 245, (R)—N-[1-(3,5-Difluoro-4-methanesulfonylamino-phenyl)-ethyl]-3-(2-isobutyl-6-trifluoromethyl-pyridin-3-yl)-acrylamide] | 0.024
12 | CCNc1nc(C(F)(F)F)ccc1/C=C/C(=O)N[C@H](C)c1ccc(NS(C)(=O)=O)c(F)c1 [Example 246, N-[1-(3-Fluoro-4-methanesulfonylamino-phenyl)-ethyl]-3-(2-ethylamino)-6-trifluoromethyl-pyridin-3-yl-acrylamide] | 0.01
13 | CCNc1nc(C(F)(F)F)ccc1/C=C/C(=O)NCc1ccc(NS(C)(=O)=O)c(C)c1 [Example 247, N-(4-methanesulfonylamino-3-methyl-benzyl)-3-(2-ethylamino-6-trifluoromethyl)-pyridin-3-yl-acrylamide] | 0.013
14 | CCCNc1nc(C(F)(F)F)ccc1/C=C/C(=O)NCc1cc(F)c(NS(C)(=O)=O)cc1F [Example 248, N-(2,5-Difluoro-4-methanesulfonylamino-benzyl)-3-(2-propylamino-6-trifluoromethyl-pyridin-3-yl)-acrylamide] | 0.12
15 | C#Cc1cc(CNC(=O)/C=C/c2ccc(C(F)(F)F)nc2NCC)cc(F)c1NS(C)(=O)=O [Example 249, 3-(2-Ethylamino-6-trifluoromethyl-pyridin-3-yl)-N-(3-ethynyl-5-fluoro-4-methanesulfonylamino-benzyl)-acrylamide] | 0.025
16 | C=Cc1cc(CNC(=O)/C=C/c2ccc(C(F)(F)F)nc2NCC)cc(F)c1NS(C)(=O)=O [Example 250, 3-(2-Ethylamino-6-trifluoromethyl-pyridin-3-yl)-N-(3-fluoro-4-methanesulfonylamino-5-vinyl-benzyl)-acrylamide] | 0.032
17 | CCCc1nc(C(F)(F)F)ccc1/C=C/C(=O)NCc1ccc(NS(C)(=O)=O)cc1Cl [Example 251, N-(2-Chloro-4-methanesulfonylamino-benzyl)-3-(2-propyl-6-trifluoromethyl-pyridin-3-yl)-acrylamide] | 0.7
18 | CCCc1nc(C(F)(F)F)ccc1/C=C/C(=O)NCc1ccc(NS(C)(=O)=O)cc1 [Example 252, N-(4-Methanesulfonylamino-benzyl)-3-(2-propyl-6-trifluoromethyl-pyridin-3-yl)-acrylamide] | 0.33
19 | CCCNc1nc(C(F)(F)F)ccc1/C=C/C(=O)NCc1ccc(NS(C)(=O)=O)c(Cl)c1 [Example 254, N-(3-Chloro-4-methanesulfonylamino-benzyl)-3-(2-propylamino-6-trifluoromethyl)-pyridin-3-yl-acrylamide] | 0.15
20 | CCNc1nc(C(F)(F)F)ccc1/C=C/C(=O)NCc1cc(F)c(NS(C)(=O)=O)cc1F [Example 255, N-(2,5-Difluoro-4-methanesulfonylamino-benzyl)-3-(2-ethylamino-6-trifluoromethyl)-pyridin-3-yl-acrylamide] | 0.13
21 | CCNc1nc(C(F)(F)F)ccc1/C=C/C(=O)NCc1ccc(NS(C)(=O)=O)c(F)c1 [Example 256, 3-(2-Ethylamino-6-trifluoromethyl-pyridin-3-yl)-N-(3-fluoro-4-methanesulfonylamino-benzyl)-acrylamide] | 0.068
22 | CCNc1nc(C(F)(F)F)ccc1/C=C/C(=O)NCc1cc(F)c(NS(C)(=O)=O)c(F)c1 [Example 257, N-(3,5-Difluoro-4-methanesulfonylamino-benzyl)-3-(2-ethylamino-6-trifluoromethyl-pyridin-3-yl)-acrylamide] | 0.056
23 | CCNc1nc(C(F)(F)F)ccc1/C=C/C(=O)NCc1cc(C)c(NS(C)(=O)=O)c(F)c1 [Example 258, 3-(2-Ethylamino-6-trifluoromethyl-pyridin-3-yl)-N-(3-fluoro-4-methanesulfonylamino-5-methyl-benzyl)-acrylamide] | 0.021
24 | CCNc1nc(C(F)(F)F)ccc1/C=C/C(=O)NCc1cc(F)c(NS(C)(=O)=O)c(C#N)c1 [Example 259, N-(3-Cyano-5-fluoro-4-methanesulfonylamino-benzyl)-3-(2-ethylamino-6-trifluoromethyl-pyridin-3-yl)-acrylamide] | 0.19
